In the supplement of paper PMC10307832:

Key:
Test in all cases: relative viability (nuclei count vs DMSO), 5 days (fraction); higher = more cells survive
Tipifarnib + Pictilisib = compound: Cn1cncc1[C@@](N)(c1ccc(Cl)cc1)c1ccc2c(c1)c(-c1cccc(Cl)c1)cc(=O)n2C [Tipifarnib] + CS(=O)(=O)N1CCN(Cc2cc3nc(-c4cccc5[nH]ncc45)nc(N4CCOCC4)c3s2)CC1 [Pictilisib] (partner 1 µM)
How it was run: (§1)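 Lung cancer cell lines were pin-tool dosed in 1536-well plates on the day after seeding, with either a lone drug or a fixed anchor-drug dose plus five library-drug doses (not always all listed) in √10 steps. Nuclei were counted on 4× images after 5 days. Relative viability is the ratio of treated-well to vehicle-well nuclei counts, with each value a median of duplicate plates.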

Tipifarnib + Linsitinib = compound: Cn1cncc1[C@@](N)(c1ccc(Cl)cc1)c1ccc2c(c1)c(-c1cccc(Cl)c1)cc(=O)n2C [Tipifarnib] + C[C@]1(O)C[C@@H](c2nc(-c3ccc4ccc(-c5ccccc5)nc4c3)c3c(N)nccn32)C1 [Linsitinib] (partner 1 µM)
How it was run: as §1

Tipifarnib + Alpelisib = compound: Cn1cncc1[C@@](N)(c1ccc(Cl)cc1)c1ccc2c(c1)c(-c1cccc(Cl)c1)cc(=O)n2C [Tipifarnib] + Cc1nc(NC(=O)N2CCC[C@H]2C(N)=O)sc1-c1ccnc(C(C)(C)C(F)(F)F)c1 [Alpelisib] (partner 2 µM)
How it was run: as §1

Tipifarnib + Decitabine = compound: Cn1cncc1[C@@](N)(c1ccc(Cl)cc1)c1ccc2c(c1)c(-c1cccc(Cl)c1)cc(=O)n2C [Tipifarnib] + Nc1ncn([C@H]2C[C@H](O)[C@@H](CO)O2)c(=O)n1 [Decitabine] (partner 2 µM)
How it was run: as §1

Cell Line	relative viability (Tipifarnib + Pictilisib; first compound 0.01 µM)	relative viability (Tipifarnib + Pictilisib; first compound 0.03162 µM)	relative viability (Tipifarnib + Pictilisib; first compound 0.1 µM)	relative viability (Tipifarnib + Pictilisib; first compound 0.3162 µM)	relative viability (Tipifarnib + Pictilisib; first compound 1 µM)	relative viability (Tipifarnib + Linsitinib; first compound 0.01 µM)	relative viability (Tipifarnib + Linsitinib; first compound 0.03162 µM)	relative viability (Tipifarnib + Linsitinib; first compound 0.1 µM)	relative viability (Tipifarnib + Linsitinib; first compound 0.3162 µM)	relative viability (Tipifarnib + Linsitinib; first compound 1 µM)	relative viability (Tipifarnib + Alpelisib; first compound 0.01 µM)	relative viability (Tipifarnib + Alpelisib; first compound 0.03162 µM)	relative viability (Tipifarnib + Alpelisib; first compound 0.1 µM)	relative viability (Tipifarnib + Alpelisib; first compound 0.3162 µM)	relative viability (Tipifarnib + Alpelisib; first compound 1 µM)	relative viability (Tipifarnib + Decitabine; first compound 0.01 µM)	relative viability (Tipifarnib + Decitabine; first compound 0.03162 µM)	relative viability (Tipifarnib + Decitabine; first compound 0.1 µM)	relative viability (Tipifarnib + Decitabine; first compound 0.3162 µM)	relative viability (Tipifarnib + Decitabine; first compound 1 µM)
HCC-78	0.19	0.24	0.191	0.2	0.176	0.607	0.565	0.562	0.354	0.361	0.41	0.314	0.317	0.271	0.292	0.786	0.756	0.719	0.664	0.514
NCI-H2085	0.513	0.478	0.446	0.541	0.43	0.923	0.651	0.514	0.404	0.479	0.924	0.709	0.605	0.599	0.533	0.558	0.59	0.519	0.493	0.536
PC-14	0.656	0.59	0.251	0.169	0.173	0.98	0.965	0.713	0.432	0.437	0.99	0.774	0.653	0.392	0.451	0.223	0.183	0.221	0.189	0.145
NCI-H2342	–	–	–	–	–	–	–	–	–	–	–	–	–	–	–	0.778	0.782	0.683	0.555	0.557
A-427	0.675	0.511	0.673	0.677	0.373	1.18	1.11	1.05	1.09	1.09	1.21	1.1	1.06	1.02	0.952	0.621	0.548	0.574	0.478	0.449
H3255	0.565	0.449	0.416	0.375	0.395	1.06	0.895	0.916	0.591	0.684	0.759	0.734	0.627	0.482	0.497	0.685	0.556	0.605	0.48	0.492
HCC-44	0.667	0.619	0.451	0.262	0.363	0.563	0.615	0.557	0.493	0.521	0.742	0.747	0.62	0.615	0.58	0.869	0.846	0.934	0.847	0.804
NCI-H1734	0.486	0.356	0.38	0.331	0.346	0.875	0.85	0.709	0.694	0.48	0.714	0.598	0.592	0.501	0.418	0.565	0.485	0.557	0.434	0.369
NCI-H2228	0.369	0.388	0.325	0.202	0.243	0.771	0.416	0.611	0.382	0.494	0.997	0.475	0.473	0.537	0.371	–	–	–	–	–
ABC-1	0.808	–	0.623	0.583	0.492	0.827	–	0.76	0.665	0.554	1.01	–	0.869	0.721	0.822	1.33	1.03	1.13	0.738	0.706
COR-L23	0.816	0.509	0.458	0.383	0.298	1.01	0.628	0.614	0.374	0.409	0.808	0.525	0.431	0.373	0.338	0.526	0.329	0.375	0.347	0.288
NCI-H661	0.441	0.535	0.419	0.474	0.326	0.754	0.616	0.502	0.511	0.438	0.648	0.901	0.399	0.598	0.446	0.646	0.564	0.525	0.503	0.531
ChaGo-K-1	0.694	0.8	0.71	0.618	0.542	–	–	–	–	–	–	–	–	–	–	0.542	0.535	0.549	0.483	0.465
NCI-H1650	0.409	0.228	0.337	0.265	0.191	–	–	–	–	–	–	–	–	–	–	0.307	0.298	0.309	0.357	0.304
EBC-1	0.313	0.199	0.198	0.183	0.242	0.854	0.288	0.332	0.265	0.212	0.697	0.371	0.36	0.331	0.274	–	–	–	–	–
NCI-H1703	0.239	0.234	0.201	0.21	0.214	0.84	0.323	0.145	0.274	0.373	0.267	0.275	0.147	0.272	0.21	–	–	–	–	–
CAL-12T	0.388	0.329	0.384	0.414	0.32	0.812	0.606	0.616	0.387	0.403	1.33	0.851	0.555	0.417	0.693	–	–	–	–	–
NCI-H1563	0.669	0.64	0.655	0.628	0.589	1.13	1.13	1.13	1.03	1.14	0.991	0.867	0.862	0.893	0.757	–	–	–	–	–
NCI-H2170	0.317	0.291	0.295	0.278	0.222	–	–	–	–	–	0.839	0.818	0.74	0.671	0.699	0.533	0.441	0.465	0.43	0.412
